ChEMBL document CHEMBL3774326, “New derivative of 2-(2,4-dihydroxyphenyl)thieno-1,3-thiazin-4-one (BChTT) elicits antiproliferative effect via p38-mediated cell cycle arrest in cancer cells” (Bioorg Med Chem, 2016)
Active and inactive are the calls of the source. No cut-off for these calls is given here.

Experiments:
[1] = Cytotoxicity against HSF assessed as cell viability at 10 to 100 uM after 24 hrs by LDH assay; settings: human
HT-29 [2] = assay: Effect on c-myc expression in human HT-29 cells at 10 to 50 uM after 0.5 to 24 hrs by Western blot analysis; type: functional, cell-based
HT-29 [3] = assay: Decrease in cyclin D1 expression in human HT-29 cells at 50 uM after 3 to 24 hrs by Western blot analysis; type: functional, cell-based
[4] = molecular target: T1, MAP kinase p38 (Homo sapiens) (UniProt O15264+Q15759+Q16539+P53778); assay: Increase in phosphorylated p38 level in human A549 cells at 10 to 50 uM after 24 hrs by Western blot analysis; type: cell-based
C6 [5] = assay: Inhibition of DNA synthesis in rat C6 cells assessed as BrdU incorporation after 48 hrs by ELISA; type: functional, cell-based
C6 [6] = assay: Induction of cell cycle arrest in rat C6 cells assessed as accumulation at G0/G1 phase after 24 to 48 hrs by propidium iodide staining-based flow cytometric analysis; type: functional
C6 [7] = assay: Increase in phosphorylated p38 level in rat C6 cells after 0.5 to 3 hrs by Western blot analysis; type: cell-based
HT-29 [8] = assay: Induction of cell cycle arrest in human HT-29 cells assessed as decrease in cell level at S phase after 24 to 48 hrs by propidium iodide staining-based flow cytometric analysis; type: functional
HT-29 [9] = assay: Induction of cell cycle arrest in human HT-29 cells assessed as decrease in cell level at G2M phase after 24 to 48 hrs by propidium iodide staining-based flow cytometric analysis; type: functional
C6 [10] = assay: Decrease in cyclin D1 expression in rat C6 cells at 50 uM after 0.5 to 24 hrs by Western blot analysis; type: functional, cell-based
[11] = molecular target: Mitogen-activated protein kinase 1 and 3 (ERK2 and ERK1) (Rattus norvegicus) (UniProt P63086+P21708); assay: Effect on ERK1/2 phosphorylation in rat C6 cells at 10 to 50 uM after 0.5 to 24 hrs by Western blot analysis; type: cell-based
[12] = molecular target: T1, MAP kinase p38 (Homo sapiens); assay: Increase in phosphorylated p38 level in human HT-29 cells after 0.5 to 24 hrs by Western blot analysis; type: cell-based
[13] = Cytotoxicity against rat OLN93 cells assessed as cell viability at 10 to 100 uM after 24 hrs by LDH assay; type: cell-based
HT-29 [14] = assay: Antiproliferative activity against human HT-29 cells after 96 hrs by MTT assay; type: functional, cell-based
A549 [15] = assay: Antiproliferative activity against human A549 cells after 96 hrs by MTT assay; type: functional, cell-based
[16] = Cytotoxicity against rat FaO cells assessed as cell viability at 10 to 100 uM after 24 hrs by LDH assay; type: cell-based
[17] = molecular target: T1, MAP kinase p38 (Homo sapiens); assay: Increase in phosphorylated p38 level in human A549 cells after 0.5 hrs by Western blot analysis; type: cell-based
[18] = molecular target: T2, Mitogen-activated protein kinase; ERK1/ERK2 (Homo sapiens) (UniProt P27361+P28482); assay: Effect on ERK1/2 phosphorylation in human A549 cells at 10 to 50 uM after 0.5 to 24 hrs by Western blot analysis; type: cell-based
A549 [19] = assay: Effect on CREB expression in human A549 cells at 10 to 50 uM after 0.5 to 24 hrs by Western blot analysis; type: functional, cell-based
[20] = molecular target: T2, Mitogen-activated protein kinase; ERK1/ERK2 (Homo sapiens); assay: Effect on ERK1/2 phosphorylation in human HT-29 cells at 10 to 50 uM after 0.5 to 24 hrs by Western blot analysis; type: cell-based
C6 [21] = assay: Induction of cell cycle arrest in rat C6 cells assessed as decrease in cell level at G2M phase after 24 to 48 hrs by propidium iodide staining-based flow cytometric analysis; type: functional
A549 [22] = assay: Effect on c-myc expression in human A549 cells at 10 to 50 uM after 0.5 to 24 hrs by Western blot analysis; type: functional, cell-based
HT-29 [23] = assay: Effect on CREB expression in human HT-29 cells at 10 to 50 uM after 0.5 to 24 hrs by Western blot analysis; type: functional, cell-based
A549 [24] = assay: Inhibition of DNA synthesis in human A549 cells assessed as BrdU incorporation after 48 hrs by ELISA; type: functional, cell-based
C6 [25] = assay: Effect on CREB expression in rat C6 cells at 10 to 50 uM after 0.5 to 24 hrs by Western blot analysis; type: functional, cell-based
A549 [26] = assay: Decrease in cyclin D1 expression in human A549 cells at 50 uM after 3 to 24 hrs by Western blot analysis; type: functional, cell-based
A549 [27] = assay: Induction of cell cycle arrest in human A549 cells assessed as accumulation at G0/G1 phase after 24 to 48 hrs by propidium iodide staining-based flow cytometric analysis; type: functional
C6 [28] = assay: Effect on c-myc expression in rat C6 cells at 10 to 50 uM after 0.5 to 24 hrs by Western blot analysis; type: functional, cell-based
C6 [29] = assay: Induction of cell cycle arrest in rat C6 cells assessed as decrease in cell level at S phase after 24 to 48 hrs by propidium iodide staining-based flow cytometric analysis; type: functional
C6 [30] = assay: Antiproliferative activity against rat C6 cells at 25 to 50 uM after 48 hrs by MTT assay in presence of p38 siRNA; type: functional, cell-based
C6 [31] = assay: Antiproliferative activity against rat C6 cells after 96 hrs by MTT assay; type: functional, cell-based
C6 [32] = assay: Increase in phosphorylated p38 level in rat C6 cells at 10 to 50 uM after 24 hrs by Western blot analysis; type: cell-based
A549 [33] = assay: Induction of cell cycle arrest in human A549 cells assessed as decrease in cell level at G2M phase after 24 to 48 hrs by propidium iodide staining-based flow cytometric analysis; type: functional
HT-29 [34] = assay: Induction of cell cycle arrest in human HT-29 cells assessed as accumulation at G0/G1 phase at 50 uM after 24 to 48 hrs by propidium iodide staining-based flow cytometric analysis; type: functional
A549 [35] = assay: Induction of cell cycle arrest in human A549 cells assessed as decrease in cell level at S phase after 24 to 48 hrs by propidium iodide staining-based flow cytometric analysis; type: functional
HT-29 [36] = assay: Inhibition of DNA synthesis in human HT-29 cells assessed as BrdU incorporation after 48 hrs by ELISA; type: functional, cell-based
[37] = Cytotoxicity against rat FaO cells assessed as cell viability at 100 uM after 24 hrs by LDH assay; type: cell-based

T2 sequence (P27361 whole entry, looked up): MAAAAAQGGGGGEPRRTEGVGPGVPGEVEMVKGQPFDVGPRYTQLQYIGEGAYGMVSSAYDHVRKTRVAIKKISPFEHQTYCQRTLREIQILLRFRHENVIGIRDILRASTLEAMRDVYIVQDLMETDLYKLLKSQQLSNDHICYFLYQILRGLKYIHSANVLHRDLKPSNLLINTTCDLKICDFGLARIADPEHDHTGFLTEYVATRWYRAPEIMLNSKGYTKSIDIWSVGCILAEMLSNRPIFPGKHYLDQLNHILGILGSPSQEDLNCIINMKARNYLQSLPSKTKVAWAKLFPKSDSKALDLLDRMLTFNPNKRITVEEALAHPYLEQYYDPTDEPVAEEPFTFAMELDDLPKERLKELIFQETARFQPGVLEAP
T2 sequence (P28482 whole entry, looked up): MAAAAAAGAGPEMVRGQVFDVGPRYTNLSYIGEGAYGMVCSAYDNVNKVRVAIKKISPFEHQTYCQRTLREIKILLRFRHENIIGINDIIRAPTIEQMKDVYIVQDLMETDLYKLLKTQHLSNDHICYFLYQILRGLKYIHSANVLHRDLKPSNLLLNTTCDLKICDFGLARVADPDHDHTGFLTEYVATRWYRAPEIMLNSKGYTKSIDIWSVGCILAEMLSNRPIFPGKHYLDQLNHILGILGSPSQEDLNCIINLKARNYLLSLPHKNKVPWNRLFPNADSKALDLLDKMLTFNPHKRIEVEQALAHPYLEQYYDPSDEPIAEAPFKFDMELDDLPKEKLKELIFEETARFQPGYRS
Chain of Mitogen-activated protein kinase 1 and 3 (ERK2 and ERK1) (Rattus norvegicus) (P21708 whole entry, looked up): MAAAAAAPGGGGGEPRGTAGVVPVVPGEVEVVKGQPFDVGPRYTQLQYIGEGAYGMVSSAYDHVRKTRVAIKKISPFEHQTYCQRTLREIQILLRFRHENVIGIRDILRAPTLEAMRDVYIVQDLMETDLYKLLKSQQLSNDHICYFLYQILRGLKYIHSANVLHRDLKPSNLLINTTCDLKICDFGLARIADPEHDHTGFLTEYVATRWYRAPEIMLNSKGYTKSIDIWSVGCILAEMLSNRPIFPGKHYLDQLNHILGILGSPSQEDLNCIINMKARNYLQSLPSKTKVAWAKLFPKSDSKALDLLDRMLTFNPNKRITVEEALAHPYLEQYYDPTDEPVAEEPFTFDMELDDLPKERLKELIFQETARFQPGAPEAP
Chain of Mitogen-activated protein kinase 1 and 3 (ERK2 and ERK1) (Rattus norvegicus) (P63086 whole entry, looked up): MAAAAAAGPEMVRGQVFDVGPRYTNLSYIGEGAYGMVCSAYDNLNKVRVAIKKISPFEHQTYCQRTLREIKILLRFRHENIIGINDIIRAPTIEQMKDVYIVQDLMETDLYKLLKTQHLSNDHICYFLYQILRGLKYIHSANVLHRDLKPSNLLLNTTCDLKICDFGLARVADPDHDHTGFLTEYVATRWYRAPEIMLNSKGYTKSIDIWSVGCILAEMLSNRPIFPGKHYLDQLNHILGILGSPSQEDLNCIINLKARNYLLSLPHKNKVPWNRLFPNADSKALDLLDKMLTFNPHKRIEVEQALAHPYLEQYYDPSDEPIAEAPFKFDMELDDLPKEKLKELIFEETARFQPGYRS

- Activity [4]: inactive
- Activity [11]: inactive
- Activity [12]: Dose-dependent effect
- IC50 (HT-29 [14]; HT-29, 96 h): 38.6 µM
- IC50 (A549 [15]; A549, 96 h): 32.9 µM
- Activity [17]: Dose-dependent effect
- Activity [18]: inactive
- Activity [20]: inactive
SMILES: CC(C)(C)c1cc2nc(-c3cc(Cl)c(O)cc3O)sc(=O)c2s1
- Activity [1]: Non-toxic
- Activity (HT-29 [2]): inactive
- Activity (HT-29 [3]): Active
- inhibition (C6 [5]): Dose-dependent effect
- Activity (C6 [6]): Dose-dependent effect
- Activity (C6 [7]): Dose-dependent effect
- Activity (HT-29 [8]): Dose-dependent effect
- Activity (HT-29 [9]): Dose-dependent effect
- Activity (C6 [10]): Active
- Activity [13]: Non-toxic
- Activity (HT-29 [14]): Dose-dependent effect
- Activity (A549 [15]): Dose-dependent effect
- Activity [16]: Non-toxic
- Activity (A549 [19]): inactive
- Activity (C6 [21]): Dose-dependent effect
- Activity (A549 [22]): inactive
- Activity (HT-29 [23]): inactive
- inhibition (A549 [24]): Dose-dependent effect
- Activity (C6 [25]): inactive
- Activity (A549 [26]): Active
- Activity (A549 [27]): Dose-dependent effect
- Activity (C6 [28]): inactive
- Activity (C6 [29]): Dose-dependent effect
- Activity (C6 [30]): inactive
- Activity (C6 [31]): Dose-dependent effect
- IC50 (C6 [31]; C6, 96 h): 87.4 µM
- Activity (C6 [32]): inactive
- Activity (A549 [33]): Dose-dependent effect
- Activity (HT-29 [34]): Dose-dependent effect
- Activity (A549 [35]): Dose-dependent effect
- inhibition (HT-29 [36]): Dose-dependent effect
- Activity [37]: Toxic
